Experimental data as given in paper PMC6429356, “Development of Anthraquinone Analogues as Phosphoglycerate Mutase 1 Inhibitors” (Molecules, 2019).

What was measured:
PGAM1 = target: T1, PGAM1 (Homo sapiens, UniProt P18669); assay: PGAM1 enzymatic assay (enolase-pyruvate kinase-LDH coupled, OD 340 nm); format: biochemical; conditions: for inhibition at 10 µM: 10 μM compound, mean ± s.d. (n = 2); for IC50: optimized enzymatic assay, mean ± s.d. (n = 3)
T1 construct: His6 (C); made in house
Protocol: (§1) Firstly, 1 μL inhibitor in dimethyl sulfoxide (DMSO) incubated with 49 μL 4.6 nM recombinant PGAM1, then 50 μL enzyme mix containing 3 units/mL enolase (Sigma-Aldrich, Saint Louis, MO, USA), 3 units/mL recombinant pyruvate kinase M2 (Sigma-Aldrich), 0.6 units/mL recombinant lactatdehydrogenase (LDH, Sigma-Aldrich), 100 mM Tris-HCl, 100 mM KCl, 5 mM MgCl2, 1 mM adenosine diphosphate (ADP), 0.2 mM the reduced form of nicotinamide adenine dinucleotide (NADH) and 4 mM 3PG was added. PGAM1 activity was measured as the decrease in OD at 340 nm. In addition, we performed a counter screening in which 4mM 2PG was added to 50 μL reaction mix containing the indicated inhibitor, 3 units/mL enolase (Sigma-Aldrich), 3 units/mL recombinant pyruvate kinase M2 (Sigma-Aldrich), 0.6 units/mL recombinant LDH (Sigma-Aldrich), 100 mM Tris-HCl, 100 mM KCl, 5 mM MgCl2, 1 mM ADP and 0.2 mM NADH. The other three enzyme activity was measured as the decrease in OD at 340 nm.

H1299 cells = assay: Cell viability assay (MTT, 72 h), H1299; format: cell-based; conditions: Homo sapiens, NCI-H1299, proliferation, mean ± s.d. (n = 3)
Protocol: (§2) The H1299 cell line was obtained from Guangzhou Jenniobio Biotechnology Co., Ltd. (Guangzhou, China), PC9 and A549 cells were gifted from Deng Jiong’s lab in the School of Medicine, Shanghai Jiao Tong University, Shanghai, China). H1299, PC9 cells were cultured in RPMI-1640 medium and A549 cells were cultured in F-12K medium containing 10% fetal bovine serum (FBS), 100 units/mL of Penicillin and 100 μg/mL Streptomycin. In cell viability assays, 2000 H1299 cells, A549 cells or 1000 PC9 cells per well were seeded in 96-well plate. After attachment for 24 h, the cells were treated with indicated inhibitor for 72 h. After incubation with 0.5 mg/mL methylthiazolyldiphenyl-tetrazolium bromide (MTT) for 4 h, cell viability was measured as the OD at 570 nm.

[1] = test system: enolase-pyruvate kinase-LDH; assay: Counter screening: control linked enzyme assay with 2PG; format: biochemical; conditions: 0.5 μM compound, pyruvate kinase M2, LDH without PGAM1, mean ± s.d. (n = 2)
Protocol: as §1

PC9 cells = assay: Cell viability assay (MTT, 72 h), PC9; format: cell-based; conditions: Homo sapiens, PC-9, proliferation, mean ± s.d. (n = 3)
Protocol: as §2

A549 cells = assay: Cell viability assay (MTT, 72 h), A549; format: cell-based; conditions: Homo sapiens, proliferation, mean ± s.d. (n = 3)
Protocol: as §2

T1 sequence (P18669 whole entry): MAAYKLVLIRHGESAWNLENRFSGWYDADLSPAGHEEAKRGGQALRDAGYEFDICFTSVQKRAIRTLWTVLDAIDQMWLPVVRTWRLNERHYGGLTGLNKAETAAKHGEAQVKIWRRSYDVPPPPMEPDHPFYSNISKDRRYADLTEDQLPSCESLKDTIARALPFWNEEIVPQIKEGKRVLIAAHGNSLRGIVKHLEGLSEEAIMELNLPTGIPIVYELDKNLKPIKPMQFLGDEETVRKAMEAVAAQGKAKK

SMILES | inhibition at 10 µM (PGAM1) [%] | IC50 (PGAM1) [nM] | IC50 (H1299 cells) [µM] | Inhibition in the Control Linked Enzyme Assay (0.5 μM) [1] [%] | IC50 (PC9 cells) [µM] | IC50 (A549 cells) [µM]
CCOC(=O)COc1ccc2c(c1OCC(=O)OCC)C(=O)c1ccccc1C2=O [Compound 6a, diethyl 2,2′-((9,10-dioxo-9,10-dihydroanthracene-1,2-diyl)bis(oxy)) diacetate] | -0.6 ± 1 |  |  |  |  | 
O=C(O)COc1ccc2c(c1OCC(=O)O)C(=O)c1ccccc1C2=O [Compound 6b, 2,2′-((9,10-dioxo-9,10-dihydroanthracene-1,2-diyl)bis(oxy)) diacetic acid] | 14.3 ± 5.9 |  |  |  |  | 
CCOC(=O)COc1ccc2c(c1O)C(=O)c1ccccc1C2=O [Compound 6c] | 0 |  |  |  |  | 
O=C(O)COc1ccc2c(c1O)C(=O)c1ccccc1C2=O [Compound 6d] | 5.5 ± 0.03 |  |  |  |  | 
CN(C)C(=O)COc1ccc2c(c1O)C(=O)c1ccccc1C2=O [Compound 6e, 2-((1-hydroxy-9,10-dioxo-9,10-dihydroanthracen-2-yl)oxy)-N,N-dimethylacetamide] | 20.2 ± 2.2 |  |  |  |  | 
O=C1c2ccccc2C(=O)c2c1cc(NS(=O)(=O)c1ccc(C(F)(F)F)cc1)c(O)c2O [Compound 9a, N-(3,4-Dihydroxy-9,10-dioxo-9,10-dihydroanthracen-2-yl)-4-(trifluoromethyl) benzenesulfonamide] |  | 540 ± 40 | 20.7 ± 0.6 | 8.0 ± 5.0 |  | 
O=C1c2ccccc2C(=O)c2c1cc(NS(=O)(=O)c1ccc([N+](=O)[O-])cc1)c(O)c2O [Compound 9b, N-(3,4-Dihydroxy-9,10-dioxo-9,10-dihydroanthracen-2-yl)-4-nitrobenzenesulfonamide] |  | 470 ± 80 | 25.8 ± 2.2 | −2.9 ± 0.3 |  | 
O=C1c2ccccc2C(=O)c2c1cc(NS(=O)(=O)c1ccccc1OC(F)(F)F)c(O)c2O [Compound 9d, N-(3,4-Dihydroxy-9,10-dioxo-9,10-dihydroanthracen-2-yl)-2-(trifluoromethoxy) benzenesulfonamide] |  | 2200 ± 500 | 13.9 ± 3.6 |  | 44.2 ± 1.5 | 17 ± 4.9
N#Cc1ccc(S(=O)(=O)Nc2cc3c(c(O)c2O)C(=O)c2ccccc2C3=O)cc1 [Compound 9e, 4-Cyano-N-(3,4-dihydroxy-9,10-dioxo-9,10-dihydroanthracen-2-yl) benzenesulfonamide] |  | 610 ± 120 | 26.3 ± 4.5 | 6.7 ± 0.2 |  | 
O=C1c2ccccc2C(=O)c2c1cc(NS(=O)(=O)c1ccc(F)cc1)c(O)c2O [Compound 9f, N-(3,4-Dihydroxy-9,10-dioxo-9,10-dihydroanthracen-2-yl)-4-fluorobenzenesulfonamide] |  | 540 ± 70 | 24.2 ± 2.6 | 5.7 ± 0.7 |  | 
O=C1c2ccccc2C(=O)c2c1cc(NS(=O)(=O)c1ccccc1F)c(O)c2O [Compound 9g, N-(3,4-Dihydroxy-9,10-dioxo-9,10-dihydroanthracen-2-yl)-2-fluorobenzenesulfonamide] |  | 790 ± 40 | 31.3 ± 1.9 | 10.2 ± 3.0 |  | 
O=C1c2ccccc2C(=O)c2c1cc(NS(=O)(=O)c1cccc(F)c1F)c(O)c2O [Compound 9h, N-(3,4-Dihydroxy-9,10-dioxo-9,10-dihydroanthracen-2-yl)-2,3-difluorobenzenesulfonamide] |  | 890 ± 130 | 45.7 ± 2.7 | 0.06 ± 0.4 |  | 
O=C1c2ccccc2C(=O)c2c1cc(NS(=O)(=O)c1ccc(Cl)cc1Cl)c(O)c2O [Compound 9j, 2,4-Dichloro-N-(3,4-dihydroxy-9,10-dioxo-9,10-dihydroanthracen-2-yl) benzenesulfonamide] |  | 280 ± 70 | 23.7 ± 1.1 | −2.0 ± 5.1 |  | 
O=C1c2ccccc2C(=O)c2c1cc(NS(=O)(=O)c1c(Cl)cccc1Cl)c(O)c2O [Compound 9k, 2,6-Dichloro-N-(3,4-dihydroxy-9,10-dioxo-9,10-dihydroanthracen-2-yl) benzenesulfonamide] |  | 890 ± 330 | 34.6 ± 2.4 | 0.5 ± 3.2 |  | 
O=C1c2ccccc2C(=O)c2c1cc(NS(=O)(=O)c1ccc(Br)cc1)c(O)c2O [Compound 9m, 4-Bromo-N-(3,4-dihydroxy-9,10-dioxo-9,10-dihydroanthracen-2-yl) benzenesulfonamide] |  | 260 ± 20 | 28.1 ± 1.9 | −0.1 ± 2.5 |  | 
O=C1c2ccccc2C(=O)c2c1cc(NS(=O)(=O)c1ccccc1Br)c(O)c2O [Compound 9n, 2-Bromo-N-(3,4-dihydroxy-9,10-dioxo-9,10-dihydroanthracen-2-yl) benzenesulfonamide] |  | 200 ± 40 | 50 ± 0.6 | 6.1 ± 0.8 |  | 
O=C1c2ccccc2C(=O)c2c1cc(NS(=O)(=O)c1cccc(Br)c1)c(O)c2O [Compound 9o, 3-Bromo-N-(3,4-dihydroxy-9,10-dioxo-9,10-dihydroanthracen-2-yl) benzenesulfonamide] |  | 350 ± 5 | 24.5 ± 0.2 | 7.7 ± 0.2 |  | 
O=C1c2ccccc2C(=O)c2c1cc(NS(=O)(=O)c1ccccc1I)c(O)c2O [Compound 9q, 2-Iodo-N-(3,4-dihydroxy-9,10-dioxo-9,10-dihydroanthracen-2-yl) benzenesulfonamide] |  | 260 ± 30 | 26.4 ± 3.8 | −2.3 ± 2.4 |  | 
CCOC(=O)COc1cc(NS(=O)(=O)c2ccc(Cl)cc2)c2c(c1O)C(=O)c1ccccc1C2=O [Compound 12, ethyl 2-((4-((4-chlorophenyl)sulfonamido)-1-hydroxy-9,10-dioxo-9,10-dihydroanthracen-2-yl)oxy) acetate] | 10 |  |  |  |  | 
O=C(O)COc1cc(NS(=O)(=O)c2ccc(Cl)cc2)c2c(c1O)C(=O)c1ccccc1C2=O [Compound 13, 2-((4-((4-chlorophenyl)sulfonamido)-1-hydroxy-9,10-dioxo-9,10-dihydroanthracen-2-yl)oxy) acetic acid] | 34 |  |  |  |  | 
CCOC(=O)COc1c(NS(=O)(=O)c2ccc(Cl)cc2)cc2c(c1O)C(=O)c1ccccc1C2=O [Compound 14a, ethyl 2-((3-((4-chlorophenyl)sulfonamido)-1-hydroxy-9,10-dioxo-9,10-dihydroanthracen-2-yl)oxy) acetate] |  | > 10000 |  |  |  | 
O=C(O)COc1c(NS(=O)(=O)c2ccc(Cl)cc2)cc2c(c1O)C(=O)c1ccccc1C2=O [Compound 14b, 2-((3-((4-chlorophenyl)sulfonamido)-1-hydroxy-9,10-dioxo-9,10-dihydroanthracen-2-yl)oxy) acetic acid] |  | > 10000 |  |  |  | 
COc1c(NS(=O)(=O)c2ccc(Cl)cc2)cc2c(c1O)C(=O)c1ccccc1C2=O [Compound 14c, 4-chloro-N-(4-hydroxy-3-methoxy-9,10-dioxo-9,10-dihydroanthracen-2-yl) benzene-sulfonamide] |  | 2920 ± 110 | 26.9 ± 2.1 |  |  | 
COc1c(N(C)S(=O)(=O)c2ccc(Cl)cc2)cc2c(c1O)C(=O)c1ccccc1C2=O [Compound 14d, 4-chloro-N-(4-hydroxy-3-methoxy-9,10-dioxo-9,10-dihydroanthracen-2-yl)-N-methyl-benzenesulfonamide] |  | 7010 ± 920 | 10.3 ± 0.8 |  | 49.1 ± 1.9 | 9.9 ± 0.2
O=C1c2ccccc2C(=O)c2c1cc1c(c2O)OCCN1S(=O)(=O)c1ccc(Cl)cc1 [Compound 14e, 4-((4-chlorophenyl)sulfonyl)-12-hydroxy-3,4-dihydro-2H-anthra[2,3-b][1,4]-oxazine-6,11-dione] |  | > 10000 |  |  |  | 
NNC(=O)COc1c(NS(=O)(=O)c2ccc(Cl)cc2)cc2c(c1O)C(=O)c1ccccc1C2=O [Compound 14f, 4-chloro-N-(3-(2-hydrazinyl-2-oxoethoxy)-4-hydroxy-9,10-dioxo-9,10-dihydroanthracen-2-yl) benzenesulfonamide] |  | 2000 ± 200 | > 100 |  |  | 
CS(=O)(=O)Oc1c(NS(=O)(=O)c2ccc(Cl)cc2)cc2c(c1O)C(=O)c1ccccc1C2=O [Compound 14g, 3-((4-chlorophenyl)sulfonamido)-1-hydroxy-9,10-dioxo-9,10-dihydroanthracen-2-yl methanesulfonate] |  | > 10000 | 28.5 ± 0.6 |  |  | 
